The target of assay [1] is T1, recombinant human B1 receptors (Homo sapiens, UniProt P46663).
T1 construct: host or cells: CHO (CHO-B1)
T1 sequence (P46663 1-353): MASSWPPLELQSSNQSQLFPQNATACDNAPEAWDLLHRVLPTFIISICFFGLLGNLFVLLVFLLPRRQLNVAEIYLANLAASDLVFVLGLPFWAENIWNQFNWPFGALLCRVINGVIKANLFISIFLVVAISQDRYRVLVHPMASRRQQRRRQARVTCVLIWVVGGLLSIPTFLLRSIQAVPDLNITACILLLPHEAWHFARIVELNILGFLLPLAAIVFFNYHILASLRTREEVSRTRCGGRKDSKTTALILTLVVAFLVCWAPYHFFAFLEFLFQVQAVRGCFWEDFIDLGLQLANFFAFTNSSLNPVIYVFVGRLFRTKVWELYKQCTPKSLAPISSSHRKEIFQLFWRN
The assay is described as follows: Functional assay: antagonist potency by cytosolic calcium measurement (plate reader fluorimeter) in CHO-B1 cells, agonist LysDABK. In kind it is cell-based. Conditions: CHO-B1 cells, inhibition of LysDABK (EC80)-evoked [Ca2+]i elevation; read-out: B1 func. The method, boiled down: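 IC50 is the concentration giving half-maximal inhibition of the LysDABK (EC80) calcium response, fitted from at least three experiments. CHO cells stably expressing human B1 were dye-loaded, exposed to compound for 20-25 min, then read by fluo-4 fluorescence (ΔF/F) at 37 °C.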

The target of assay [2] is T2, human recombinant bradykinin B1 receptor (Homo sapiens, UniProt P46663).
T2 construct: host or cells: CHO cells, clone hB1-A5
T2 sequence (P46663 1-353): T1 sequence (P46663 1-353)
The assay is described as follows: Human recombinant bradykinin B1 receptor competitive radioligand binding. As to conditions: hB1 expressed in CHO cells, [3H]-[Des-Arg10] Kallidin radioligand; read-out: B1 binding. In short, it runs like this:
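Membranes from CHO cells expressing hB1 (20 μg protein/tube) incubated 15 min at 25° C. with [3,4-prolyl-3,4-^3H(N)]-[Des-Arg^10] Kallidin; nonspecific binding defined with 10 μM Lys-des-Arg^9-Bradykinin. Bound label collected by filtration and counted. IC50 from ≥7-point curves in triplicate; Ki by Cheng-Prusoff.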

As for `Cn1nnc(-c2c(Cl)c3cc(F)ccc3n2-c2ccc(CNC(=O)C3(NC(=O)C(F)(F)F)CC3)c(F)c2)n1` [Example 19], in assay [1], the IC50 is below 0.02 µM. For the same compound, the Ki in assay [2] is below 0.02 µM.
With `Cc1nc(-c2c(Cl)c3ccccc3n2-c2ccc(CNC(=O)C3(NC(=O)c4ccncc4F)CC3)cc2)no1` [Example 97, N-(1-{4-[3-Chloro-2-(5-methyl-[1,2,4]oxadiazol-3-yl)-indol-1-yl]-benzylcarbamoyl}-cyclopropyl)-3-fluoro-isonicotinamide], in assay [1], the IC50 is 0.02 to 0.1 µM. In assay [2], the Ki is below 0.02 µM.
Taken in the same sequence, the figures for `Cc1nnc(-c2c(Cl)c3ccccc3n2-c2ccc(CNC(=O)C3(NC(=O)c4cncnc4)CC3)cc2)o1` [Example 184, Pyrimidine-5-carboxylic acid (1-{4-[3-chloro-2-(5-methyl-[1,3,4]oxadiazol-2-yl)-indol-1-yl]-benzylcarbamoyl}-cyclopropyl)-amide] were below 0.02 µM and below 0.02 µM.
Consider `Cc1ncc(C(=O)NC2(C(=O)NCc3ccc(-n4c(-c5noc(C)n5)c(Cl)c5ccccc54)cc3)CC2)cn1` [Example 185, 2-Methyl-pyrimidine-5-carboxylic acid (1-{4-[3-chloro-2-(5-methyl-[1,2,4]oxadiazol-3-yl)-indol-1-yl]-benzylcarbamoyl}-cyclopropyl)-amide], for which the IC50 in assay [1] was below 0.02 µM. Moreover, the Ki in assay [2] is below 0.02 µM.
Regarding `Cc1nc(-c2c(Cl)c3ccccc3n2-c2ccc(CNC(=O)C3(NC(=O)c4ccnc(F)c4)CC3)cc2)no1` [Example 164, N-(1-{4-[3-Chloro-2-(5-methyl-[1,2,4]oxadiazol-3-yl)-indol-1-yl]-benzylcarbamoyl}-cyclopropyl)-2-fluoro-isonicotinamide], the IC50 in assay [1] was below 0.02 µM. Also, in assay [2], the Ki was below 0.02 µM.
As to `COc1cc(C(=O)NC2(C(=O)NCc3ccc(-n4c(-c5noc(=O)n5C)c(Cl)c5ccccc54)cc3)CC2)on1` [Example 201, 3-Methoxy-isoxazole-5-carboxylic acid (1-{4-[3-chloro-2-(4-methyl-5-oxo-4,5-dihydro-[1,2,4]oxadiazol-3-yl)-indol-1-yl]-benzylcarbamoyl}-cyclopropyl)-amide], the IC50 in assay [1] is below 0.02 µM. In addition, the Ki in assay [2] was below 0.02 µM.
For `Cn1nnnc1-c1c(Cl)c2ccccc2n1-c1ccc(CNC(=O)C2(NC(=O)C(F)(F)F)CC2)cc1` [Example 8, 1-(2,2,2-Trifluoro-acetylamino)-cyclopropanecarboxylic acid 4-[3-chloro-2-(1-methyl-1H-tetrazol-5-yl)-indol-1-yl]-benzylamide], the IC50 in assay [1] is below 0.02 µM. In addition, in assay [2], the Ki is below 0.02 µM.
Take `Cc1nc(-c2c(Cl)c3ccccc3n2-c2ccc(CNC(=O)C3(NC(=O)CCC(C)C)CC3)cc2)no1` [Example 140, 1-(4-Methyl-pentanoylamino)-cyclopropanecarboxylic acid 4-[3-chloro-2-(5-methyl-[1,2,4]oxadiazol-3-yl)-indol-1-yl]-benzylamide]: the IC50 in assay [1] is below 0.02 µM. Also, the Ki in assay [2] was below 0.02 µM.
Consider `COc1cc(C(=O)NC2(C(=O)NCc3ccc(-n4c(-c5noc(C)n5)c(Cl)c5cc(Cl)ccc54)cc3)CC2)on1` [Example 66, 3-Methoxy-isoxazole-5-carboxylic acid (1-{4-[3,5-dichloro-2-(5-methyl-[1,2,4]oxadiazol-3-yl)-indol-1-yl]-benzylcarbamoyl}-cyclopropyl)-amide], for which the IC50 in assay [1] is below 0.02 µM. The Ki in assay [2] is below 0.02 µM.
As to `Cc1nc(-c2c(Cl)c3cc(Cl)ccc3n2-c2ccc(CNC(=O)C3(NC(=O)c4cccc(F)c4)CC3)cc2)no1` [Example 71, N-(1-{4-[3,5-Dichloro-2-(5-methyl-[1,2,4]oxadiazol-3-yl)-indol-1-yl]-benzylcarbamoyl}-cyclopropyl)-3-fluoro-benzamide], the IC50 in assay [1] was below 0.02 µM. In assay [2], the Ki is below 0.02 µM.

Values taken from patent US20130217702A1 (Richter Gedeon Nyrt., priority 2010, published 2013).
